Laboratory results from ChEMBL document CHEMBL4308841, “Synthesis, in vitro antiproliferative activity, and kinase inhibitory effects of pyrazole-containing diarylureas and diarylamides” (Eur J Med Chem, 2018).

Assays:
A549 = assay: Growth inhibition of human A549/ATCC cells incubated for 48 hrs by sulforhodamine B assay; type: functional, cell-based; conditions: A549, 48 h
COLO 205 = assay: Growth inhibition of human COLO205 cells incubated for 48 hrs by sulforhodamine B assay; type: functional, cell-based; conditions: COLO 205, 48 h
HCT-116 = assay: Growth inhibition of human HCT116 cells incubated for 48 hrs by sulforhodamine B assay; type: functional, cell-based; conditions: HCT-116, 48 h
T47D = assay: Growth inhibition of human T47D cells incubated for 48 hrs by sulforhodamine B assay; type: functional, cell-based
MDA-MB-468 [1] = assay: Growth inhibition of human MDA-MB-468 cells incubated for 48 hrs by sulforhodamine B assay; type: functional, cell-based; conditions: MDA-MB-468, 48 h
RPMI-8226 = assay: Growth inhibition of human RPMI8226 cells assessed as cell growth at 0.01 uM incubated for 48 hrs by sulforhodamine B assay relative to control; type: functional; conditions: RPMI-8226, 48 h, read-out: Activity
SF-268 = assay: Growth inhibition of human SF268 cells assessed as cell growth at 0.01 uM incubated for 48 hrs by sulforhodamine B assay relative to control; type: functional; conditions: SF-268, 48 h, read-out: Activity
SNB-19 = assay: Growth inhibition of human SNB19 cells assessed as cell growth at 0.01 uM incubated for 48 hrs by sulforhodamine B assay relative to control; type: functional; conditions: SNB-19, 48 h, read-out: Activity
LOX IMVI = assay: Growth inhibition of human LOXIMVI cells assessed as cell growth at 0.01 uM incubated for 48 hrs by sulforhodamine B assay relative to control; type: functional; conditions: read-out: Activity
UACC-62 = assay: Growth inhibition of human UACC62 cells assessed as cell growth at 0.01 uM incubated for 48 hrs by sulforhodamine B assay relative to control; type: functional; conditions: UACC-62, 48 h, read-out: Activity
OVCAR-5 = assay: Growth inhibition of human OVCAR5 cells assessed as cell growth at 0.01 uM incubated for 48 hrs by sulforhodamine B assay relative to control; type: functional; conditions: OVCAR-5, 48 h, read-out: Activity
MCF7 = assay: Growth inhibition of human MCF7 cells assessed as cell growth at 0.01 uM incubated for 48 hrs by sulforhodamine B assay relative to control; type: functional; conditions: MCF7, 48 h, read-out: Activity
K562 [2] = assay: Growth inhibition of human K562 cells assessed as cell growth at 0.1 uM incubated for 48 hrs by sulforhodamine B assay relative to control; type: functional; conditions: K562, 48 h, read-out: Activity
SNB-75 = assay: Growth inhibition of human SNB75 cells assessed as cell growth at 0.1 uM incubated for 48 hrs by sulforhodamine B assay relative to control; type: functional; conditions: SNB-75, 48 h, read-out: Activity
SK-MEL-5 [3] = assay: Growth inhibition of human SK-MEL-5 cells assessed as cell growth at 0.1 uM incubated for 48 hrs by sulforhodamine B assay relative to control; type: functional; conditions: SK-MEL-5, 48 h, read-out: Activity
NCI/ADR-RES = assay: Growth inhibition of human NCI/ADR-RES cells assessed as cell growth at 0.1 uM incubated for 48 hrs by sulforhodamine B assay relative to control; type: functional; conditions: read-out: Activity
786-0 = assay: Growth inhibition of human 786-0 cells assessed as cell growth at 0.1 uM incubated for 48 hrs by sulforhodamine B assay relative to control; type: functional; conditions: 786-0, 48 h, read-out: Activity
CAKI-1 = assay: Growth inhibition of human Caki1 cells assessed as cell growth at 0.1 uM incubated for 48 hrs by sulforhodamine B assay relative to control; type: functional; conditions: CAKI-1, 48 h, read-out: Activity
SN12C = assay: Growth inhibition of human SN12C cells assessed as cell growth at 0.1 uM incubated for 48 hrs by sulforhodamine B assay relative to control; type: functional; conditions: read-out: Activity
NCI-H226 = assay: Growth inhibition of human NCI-H226 cells assessed as cell growth at 1 uM incubated for 48 hrs by sulforhodamine B assay relative to control; type: functional; conditions: NCI-H226, 48 h, read-out: Activity
NCI-H23 [4] = assay: Growth inhibition of human NCI-H23 cells assessed as cell growth at 1 uM incubated for 48 hrs by sulforhodamine B assay relative to control; type: functional; conditions: NCI-H23, 48 h, read-out: Activity
NCI-H322M = assay: Growth inhibition of human NCI-H322M cells assessed as cell growth at 1 uM incubated for 48 hrs by sulforhodamine B assay relative to control; type: functional; conditions: read-out: Activity
HCT-15 = assay: Growth inhibition of human HCT15 cells assessed as cell growth at 1 uM incubated for 48 hrs by sulforhodamine B assay relative to control; type: functional; conditions: HCT-15, 48 h, read-out: Activity
HT-29 = assay: Growth inhibition of human HT-29 cells assessed as cell growth at 1 uM incubated for 48 hrs by sulforhodamine B assay relative to control; type: functional; conditions: HT-29, 48 h, read-out: Activity
MDA-MB-468 [5] = assay: Growth inhibition of human MDA-MB-468 cells assessed as cell growth at 1 uM incubated for 48 hrs by sulforhodamine B assay relative to control; type: functional; conditions: MDA-MB-468, 48 h, read-out: Activity
K562 [6] = assay: Growth inhibition of human K562 cells assessed as cell growth at 100 uM incubated for 48 hrs by sulforhodamine B assay relative to control; type: functional; conditions: K562, 48 h, read-out: Activity
NCI-H23 [7] = assay: Growth inhibition of human NCI-H23 cells assessed as cell growth at 100 uM incubated for 48 hrs by sulforhodamine B assay relative to control; type: functional; conditions: NCI-H23, 48 h, read-out: Activity
KM12 = assay: Growth inhibition of human KM12 cells assessed as cell growth at 100 uM incubated for 48 hrs by sulforhodamine B assay relative to control; type: functional; conditions: KM12, 48 h, read-out: Activity
SK-MEL-5 [8] = assay: Growth inhibition of human SK-MEL-5 cells assessed as cell growth at 100 uM incubated for 48 hrs by sulforhodamine B assay relative to control; type: functional; conditions: SK-MEL-5, 48 h, read-out: Activity
[9] = read-out: LC50 (the source's name)
[10] = read-out: pLC50 (the source's name) (converted)

O=C(Nc1cccc(-n2cc(-c3ccncc3)c(-c3cc(O)cc(Cl)c3)n2)c1)Nc1ccc(Cl)c(C(F)(F)F)c1
IC50 (A549): 2330 nM
GI50 (A549; read-out: GI50): 2330 nM
CC50 (A549; [9]): > 100 µM
TGI (A549; read-out: TGI): 92 µM
GI50 (A549; read-out: pGI50 (converted)): 2340 nM
CC50 (A549; [10]): > 100 µM
TGI (A549; read-out: pTGI (converted)): 9.12 µM
GI50 (COLO 205; read-out: GI50): 2250 nM
CC50 (COLO 205; [9]): 15.9 µM
TGI (COLO 205; read-out: TGI): 51.7 µM
GI50 (COLO 205; read-out: pGI50 (converted)): 2820 nM
CC50 (COLO 205; [10]): 19.1 µM
TGI (COLO 205; read-out: pTGI (converted)): 5.13 µM
IC50 (HCT-116): 1960 nM
GI50 (HCT-116; read-out: GI50): 1960 nM
CC50 (HCT-116; [9]): 10.7 µM
TGI (HCT-116; read-out: TGI): 44.7 µM
GI50 (HCT-116; read-out: pGI50 (converted)): 1950 nM
CC50 (HCT-116; [10]): 10.7 µM
TGI (HCT-116; read-out: pTGI (converted)): 4.47 µM
GI50 (T47D; read-out: GI50): 2440 nM
CC50 (T47D; [9]): 91.5 µM
TGI (T47D; read-out: TGI): 92.7 µM
GI50 (T47D; read-out: pGI50 (converted)): 2450 nM
CC50 (T47D; [10]): 91.2 µM
TGI (T47D; read-out: pTGI (converted)): 9.33 µM
IC50 (MDA-MB-468 [1]): 2080 nM
GI50 (MDA-MB-468 [1]; read-out: GI50): 2050 nM
CC50 (MDA-MB-468 [1]; [9]): > 100 µM
TGI (MDA-MB-468 [1]; read-out: TGI): 84.2 µM
GI50 (MDA-MB-468 [1]; read-out: pGI50 (converted)): 2630 nM
CC50 (MDA-MB-468 [1]; [10]): > 100 µM
TGI (MDA-MB-468 [1]; read-out: pTGI (converted)): 8.51 µM
growth at 0.01 µM (RPMI-8226): 101%
growth at 0.01 µM (SF-268): 95%
growth at 0.01 µM (SNB-19): 95%
growth at 0.01 µM (LOX IMVI): 90%
growth at 0.01 µM (UACC-62): 104%
growth at 0.01 µM (OVCAR-5): 98%
growth at 0.01 µM (MCF7): 90%
growth at 0.1 µM (K562 [2]): 94%
growth at 0.1 µM (SNB-75): 88%
growth at 0.1 µM (SK-MEL-5 [3]): 98%
growth at 0.1 µM (NCI/ADR-RES): 92%
growth at 0.1 µM (786-0): 95%
growth at 0.1 µM (CAKI-1): 103%
growth at 0.1 µM (SN12C): 100%
growth at 1 µM (NCI-H226): 96%
growth at 1 µM (NCI-H23 [4]): 96%
growth at 1 µM (NCI-H322M): 93%
growth at 1 µM (HCT-15): 90%
growth at 1 µM (HT-29): 99%
growth at 1 µM (MDA-MB-468 [5]): 75%
growth at 100 µM (K562 [6]): -9%
growth at 100 µM (NCI-H23 [7]): -55%
growth at 100 µM (KM12): -74%
growth at 100 µM (SK-MEL-5 [8]): -97%
